Experimental data reported in patent EP4417607A1, “HETEROCYCLIC COMPOUND AS SOS1 INHIBITOR AND USES THEREOF” (Nanjing Zaiming Pharmaceutical Co., Ltd., priority 2021, dated 2023).

Experiments:
H358 cells = assay: H358 cell proliferation inhibition (CellTiter-Glo luminescent cell viability assay); format: cell-based; conditions: Homo sapiens, NCI-H358, 168 h, 7 days
Outline: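 H358 cells seeded at 3000 cells/well in RPMI1640/10% FBS, treated with compound for 7 days at 37 °C/5% CO2. Viability read by CellTiter-Glo 3D luminescence, normalised to cell-free (100%) and compound-free (0%) controls; IC50 fitted from 8 concentrations by four-parameter curve.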

CYP2C9 = target: T1, CYP2C9 (Homo sapiens, UniProt P11712); assay: CYP2C9 enzymatic activity inhibition in human liver microsomes; format: in vitro ADME; conditions: IC50, human liver microsome, substrate diclofenac
T1 construct: Human liver microsome (Corning 452117); tissue Corning 452117; host or cells: human liver microsomes
Method: The inhibition of CYP2C9, CYP2D6, and CYP3A4 enzymatic activity by the compound of the present invention was determined using the following method. • I. Experimental materials and instruments • 1. Human liver microsome (Corning 452117) • 2. Na2HPO4 (Sigma SLBZ6180) • 3. KH2PO4 (Sigma SLBT6559) • 4. NADPH (Solarbio 705Y021) • […] • 6. Positive substrates diclofenac (Sigma SLBV3438), dextromethorphan (TRC 3-EDO-175-1), and midazolam (Cerilliant FE01161704) • 7. Positive inhibitors sulfaphenazole (D. Ehrenstorfer GmbH 109012), quinidine (TCI WEODL-RE), and ketoconazole (Sigma 100M1091V) • 7. AB Sciex Triple Quad 5500 liquid chromatography-mass spectrometry system • II. Procedures • 1. Preparation of 100 mM phosphate-buffered saline (PBS): 7.098 g Na2HPO4 was weighed. 500 mL pure water was added. The mixture was dissolved by sonication to give solution A. 3.400 g KH2PO4 was weighed. 250 mL pure water was added. The mixture was dissolved by sonication to give solution B. The solution A was placed in a stirrer, and the solution B was slowly added until the pH reached 7.4 to prepare the 100 mM PBS buffer. • 2. A 10 mM NADPH solution was prepared with a 100 mM PBS buffer. A 10 mM stock solution of the compound of the present invention was diluted with DMSO to give a compound working solution at a concentration of 200× (6000, 2000, 600, 200, 60, 20, and 0 µM). The positive inhibitor stock solution was diluted with DMSO to give a positive inhibitor working solution at a concentration of 200× (sulfaphenazole, 1000, 300, 100, 30, 10, 3, and 0 µM; quinidine/ketoconazole, 100, 30, 10, 3, 1, 0.3, and 0 µM). Substrate working solutions (120 µM diclofenac, 400 µM dextromethorphan, and 200 µM midazolam) at a concentration of 200× were prepared with water, acetonitrile, or acetonitrile/methanol. • 3. […]
The values were calculated by Excel XLfit 5.3.1.3 to obtain IC50 values for the compounds of the present invention against CYP2C9, CYP2D6, and CYP3A4 as shown in Table 8. […]

T1 sequence (P11712 whole entry): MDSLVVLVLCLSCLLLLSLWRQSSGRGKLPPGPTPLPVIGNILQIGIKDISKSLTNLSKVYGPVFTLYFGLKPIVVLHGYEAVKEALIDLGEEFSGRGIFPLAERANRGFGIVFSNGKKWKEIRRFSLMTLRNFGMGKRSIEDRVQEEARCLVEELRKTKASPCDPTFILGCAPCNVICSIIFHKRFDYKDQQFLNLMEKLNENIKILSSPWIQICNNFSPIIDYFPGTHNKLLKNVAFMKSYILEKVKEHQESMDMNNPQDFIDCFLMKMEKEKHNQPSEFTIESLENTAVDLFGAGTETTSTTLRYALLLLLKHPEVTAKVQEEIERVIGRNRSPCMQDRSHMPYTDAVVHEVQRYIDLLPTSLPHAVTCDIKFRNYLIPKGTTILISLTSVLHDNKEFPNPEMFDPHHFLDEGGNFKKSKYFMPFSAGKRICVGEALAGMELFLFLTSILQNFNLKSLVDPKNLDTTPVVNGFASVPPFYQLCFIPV

SMILES	IC50 (H358 cells)	IC50 (CYP2C9)
COc1c(=O)n(N2CCOCC2)cc2c(N[C@H](C)c3cccc(C(F)F)c3F)nc(C)nc12 [Example 20, (R)-4-((1-(3-(difluoromethyl)-2-fluorophenyl)ethyl)amino)-8-methoxy-2-methyl-6-morpholinepyrido[4,3-d]pyrimidine-7(6H)-one]	98.2 nM	
[2H]C([2H])([2H])Oc1c(=O)n(C2(CF)CC2)cc2c(N[C@H](C)c3cccc(C(F)F)c3F)nc(C)nc12 [Example 23, (R)-4-((1-(3-(difluoromethyl)-2-fluorophenyl)ethyl)amino)-6-(1-(fluoromethyl)cyclopropyl)-8-(methoxy-d3)-2-methylpyrido[4,3-d]pyrimidine-7(6H)-one]	118 nM	> 30000 nM
Cc1nc(N[C@H](C)c2cccc(C(F)F)c2F)c2cn(C3(CF)CC3)c(=O)c(N3CCOCC3)c2n1 [Example 34, (R)-4-((1-(3-(difluoromethyl)-2-fluorophenyl)ethyl)amino)-6-(1-(fluoromethyl)cyclopropyl)-2-methyl-8-morpholinylpyrido[4,3-d]pyrimidine-7(6H)-one]	12.3 nM	
Cc1nc(N[C@H](C)c2cccc(C(F)F)c2F)c2cn(C3(CF)CC3)c(=O)c(N3CCOC[C@@H]3C)c2n1 [Example 40, 4-(((R)-1-(3-(difluoromethyl)-2-fluorophenyl)ethyl)amino)-6-(1-(fluoromethyl)cyclopropyl)-2-methyl-8-((S)-3-methylmorpholine)pyrido[4,3-d]pyrimidine-7(6H)-one]	14.2 nM	> 30000 nM
[2H][C@](C)(Nc1nc(C)nc2c(N3CCOCC3)c(=O)n(C3(CF)CC3)cc12)c1cccc(C(F)F)c1F [Example 55, (R)-4-((1-(3-(difluoromethyl)-2-fluorophenyl)ethyl-1-d)amino)-6-(1-(fluoromethyl)cyclopropyl)-2-methyl-8-morpholinylpyrido[4,3-d]pyrimidine-7(6H)-one]	24.3 nM	> 30000 nM
